Measured values reported in ChEMBL document CHEMBL1201862, “PubChem BioAssay data set” (2004).
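48-hour exposure; five concentrations; linearly interpolated endpoints. GI50 = concentration required for 50% inhibition of growth.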 The source made the active and inactive calls. No stated cut-off is given here; in the data, active = GI50 up to about 1.1 µM and inactive = higher.

Experiments:
Experiment in all cases: DTP human tumour cell line panel, 48 h
HCC 2998 = system: HCC 2998
BT-549 = system: BT-549
RXF 393 = system: RXF 393
NCI-H522 = system: NCI-H522
MCF7 = system: MCF7
A498 = system: A498
UACC-62 = system: UACC-62
A549 = system: A549
HCT-116 = system: HCT-116
PC-3 = system: PC-3
ACHN = system: ACHN
SR = system: SR
LOX IMVI = system: LOX IMVI
DU-145 = system: DU-145
SF-295 = system: SF-295
NCI-H460 = system: NCI-H460
MDA-N = system: MDA-N
SK-MEL-2 = system: SK-MEL-2
MDA-MB-435 = system: MDA-MB-435
OVCAR-4 = system: OVCAR-4
MDA-MB-231 = system: MDA-MB-231
SK-MEL-5 = system: SK-MEL-5
M14 = system: M14
NCI-H23 = system: NCI-H23
EKVX = system: EKVX
SW-620 = system: SW-620
RPMI-8226 = system: RPMI-8226
Hs-578T = system: Hs-578T
COLO 205 = system: COLO 205
OVCAR-3 = system: OVCAR-3
U-251 = system: U-251
786-0 = system: 786-0
HOP-62 = system: HOP-62
SK-OV-3 = system: SK-OV-3
CCRF-CEM = system: CCRF-CEM
HL-60 = system: HL-60
NCI-H226 = system: NCI-H226
KM12 = system: KM12
TK-10 = system: TK-10
SNB-19 = system: SNB-19
HCT-15 = system: HCT-15
SF-539 = system: SF-539
T47D = system: T47D
CAKI-1 = system: CAKI-1
IGROV-1 = system: IGROV-1
UACC-257 = system: UACC-257
OVCAR-5 = system: OVCAR-5
SNB-75 = system: SNB-75
HOP-92 = system: HOP-92
OVCAR-8 = system: OVCAR-8
SF-268 = system: SF-268
MOLT-4 = system: MOLT-4
UO-31 = system: UO-31
SN12C = system: SN12C
HT-29 = system: HT-29
SK-MEL-28 = system: SK-MEL-28
K562 = system: K562
Malme-3M = system: Malme-3M
NCI/ADR-RES = system: NCI/ADR-RES

For `c1ccc2c(c1)c1c3n2-c2cc(on2)C3CCC1` (centres undefined), the GI50 (HCC 2998) was > 100 µM (inactive), the GI50 (BT-549) was > 100 µM (inactive) and the GI50 (RXF 393) was > 100 µM (inactive). The GI50 (NCI-H522) was > 100 µM (inactive), the GI50 (MCF7) was > 100 µM (inactive) and the GI50 (A498) was > 100 µM (inactive). The GI50 (UACC-62) was > 100 µM (inactive), the GI50 (A549) was > 100 µM (inactive) and the GI50 (HCT-116) was > 100 µM (inactive). For the same compound, the GI50 (PC-3) was > 100 µM (inactive), the GI50 (ACHN) was > 100 µM (inactive) and the GI50 (SR) was > 100 µM (inactive). For the same compound, the GI50 (LOX IMVI) was > 100 µM (inactive), the GI50 (DU-145) was > 100 µM (inactive) and the GI50 (SF-295) was > 100 µM (inactive). The GI50 (NCI-H460) was > 100 µM (inactive), the GI50 (MDA-N) was > 100 µM (inactive) and the GI50 (SK-MEL-2) was > 100 µM (inactive). For the same compound, the GI50 (MDA-MB-435) was > 100 µM (inactive), the GI50 (OVCAR-4) was > 100 µM (inactive) and the GI50 (MDA-MB-231) was > 100 µM (inactive). For the same compound, the GI50 (SK-MEL-5) was > 100 µM (inactive), the GI50 (M14) was > 100 µM (inactive) and the GI50 (NCI-H23) was > 100 µM (inactive). For the same compound, the GI50 (EKVX) was > 100 µM (inactive), the GI50 (SW-620) was > 100 µM (inactive) and the GI50 (RPMI-8226) was > 100 µM (inactive). The GI50 (Hs-578T) was > 100 µM (inactive), the GI50 (COLO 205) was 98.4 µM (inactive) and the GI50 (OVCAR-3) was > 100 µM (inactive). For the same compound, the GI50 (U-251) was > 100 µM (inactive), the GI50 (786-0) was > 100 µM (inactive) and the GI50 (HOP-62) was > 100 µM (inactive). The GI50 (SK-OV-3) was > 100 µM (inactive), the GI50 (CCRF-CEM) was 82.6 µM (inactive) and the GI50 (HL-60) was > 100 µM (inactive). The GI50 (NCI-H226) was > 100 µM (inactive), the GI50 (KM12) was > 100 µM (inactive) and the GI50 (TK-10) was > 100 µM (inactive). The GI50 (SNB-19) was > 100 µM (inactive), the GI50 (HCT-15) was > 100 µM and the GI50 (SF-539) was > 100 µM (inactive). The GI50 (T47D) was > 100 µM (inactive), the GI50 (CAKI-1) was > 100 µM (inactive) and the GI50 (IGROV-1) was > 100 µM (inactive). For the same compound, the GI50 (UACC-257) was > 100 µM (inactive), the GI50 (OVCAR-5) was > 100 µM (inactive) and the GI50 (SNB-75) was > 100 µM (inactive). The GI50 (HOP-92) was > 100 µM (inactive), the GI50 (OVCAR-8) was > 100 µM (inactive) and the GI50 (SF-268) was > 100 µM (inactive). The GI50 (MOLT-4) was 70.1 µM (inactive), the GI50 (UO-31) was > 100 µM (inactive) and the GI50 (SN12C) was > 100 µM (inactive). The GI50 (HT-29) was > 100 µM (inactive), the GI50 (SK-MEL-28) was > 100 µM (inactive) and the GI50 (K562) was > 100 µM (inactive). The GI50 (Malme-3M) was > 100 µM (inactive) and the GI50 (NCI/ADR-RES) was > 100 µM (inactive).
